One molecule from article PMC6556898 (Biomaterials, 2018) can be followed below.

One data set concerns HIV-1ADA. The data set can be described thus: Antiretroviral activity: reverse transcriptase. Format: cell-based.
In data set [1] the test system is human monocyte-derived macrophages (MDM). In words: MTT cell vitality assay. Type of data set: cell-based. The following applies: 12 hours. (Tetrazolium dyes change colour on reduction, which living cells bring about.)

In the case of `Cc1cc(/C=C/C#N)cc(C)c1Nc1ccnc(Nc2ccc(C#N)cc2)n1` [native RPV, rilpivirine], the “RT activity (progeny HIV virion production)” value is on record as “virtually no protection” in the data set on HIV-1ADA (6.25 μM for 8 hours, challenge at day 5, MOI 0.1, 10 days post infection) and “no protection” in the data set on HIV-1ADA (12.5 mM RPV equivalents (printed) for 8 hours, challenge at day 5). Moreover, the “cell vitality (MTT)” value in data set [1] (200 μM (RPV), highest concentration tested) was found to be 37.9%. Moreover, in data set [1] (up to 50 μM (RPV)), the “effect on cell vitality (MTT)” value is recorded as “little effect on cell vitality”.
